# Assay results published in EP4793271A1, “NEUROPROTECTIVE AGENT” (National Center of Neurology and Psychiatry, priority 2023, dated 2025).
# Target: T1, hSARM1 (Homo sapiens, UniProt Q6SZW1)
# T1 sequence (Q6SZW1 28-724): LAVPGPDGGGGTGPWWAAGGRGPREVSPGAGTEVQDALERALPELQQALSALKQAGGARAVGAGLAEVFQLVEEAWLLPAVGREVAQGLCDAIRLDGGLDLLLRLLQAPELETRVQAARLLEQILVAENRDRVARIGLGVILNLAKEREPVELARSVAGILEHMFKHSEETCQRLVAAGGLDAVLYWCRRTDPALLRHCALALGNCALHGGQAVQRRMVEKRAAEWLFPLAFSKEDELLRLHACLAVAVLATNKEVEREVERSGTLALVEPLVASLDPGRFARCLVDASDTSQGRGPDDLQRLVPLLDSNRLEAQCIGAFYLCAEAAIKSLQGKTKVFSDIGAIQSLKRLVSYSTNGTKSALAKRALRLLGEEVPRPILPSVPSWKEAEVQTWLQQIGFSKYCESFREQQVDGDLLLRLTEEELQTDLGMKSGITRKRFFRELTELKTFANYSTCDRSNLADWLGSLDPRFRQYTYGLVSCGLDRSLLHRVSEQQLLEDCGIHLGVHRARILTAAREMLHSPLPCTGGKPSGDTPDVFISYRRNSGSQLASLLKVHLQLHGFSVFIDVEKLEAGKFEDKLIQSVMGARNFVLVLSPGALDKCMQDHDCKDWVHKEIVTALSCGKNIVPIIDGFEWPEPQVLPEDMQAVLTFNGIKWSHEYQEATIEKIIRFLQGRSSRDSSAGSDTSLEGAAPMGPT
# Assay: Human SARM1 activity measurement in HEK293 cells transiently transfected with ΔN-hSARM1 (PC6 fluorescent probe)
# Type: cell-based
# Design: expressed in transfected cells; host or cells: HEK293, pcDNA3 expression vector
# Conditions: inhibition rate; compound 30 µM; PC6 50 µM; HEK293 cells expressing ΔN-hSARM1; approximately 48 hours from transfection; read-out: Evaluation on hSARM1 inhibitory
# Outline: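 HEK293 cells in nicotinamide-free DMEM with 5 μM nicotinamide, transiently transfected with mitochondrial-targeting-deleted ΔN-hSARM1; PC6 base-exchange fluorescent probe (50 μM) plus compound (30 μM) added ~8 h post-transfection. Fluorescence (ex 405/em 525 nm) read ~48 h from transfection; inhibition % versus transfected DMSO control, untransfected background subtracted.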
row,inhibition at 30 µM [%],Structure (SMILES)
1,> 75,O=C(NCCCOCCOCCCNC(=O)c1cccnc1)c1cccnc1 [compound 35]
2,> 50,O=C(NCc1ccc(NC(=O)c2ccccc2)nc1)c1cccnc1 [compound 105]
3,> 50,CC(C)(C)C(=O)Nc1ccc(CNC(=O)c2cccnc2)cn1 [compound 76]
